From US10059717B2, “Urea compounds containing 3,4-dihydropyrimido[4,5-D]pyrimidin-2(1H)-one skeleton as protein kinase inhibitors” (KOREA INSTITUTE OF SCIENCE AND TECHNOLOGY, priority 2016, dated 2018)

Key:
Experiment in all cases: Kinase panel biochemical assay
Conditions in all cases: 1 μM single concentration, read-out: % residual enzyme activity
FGFR1 = FGFR1 (Homo sapiens, UniProt P11362)
Protocol: (§1) In order to measure the protein kinase inhibitory activity (% inhibition) of the compounds of the present invention, biochemical assays were performed on the full kinase panel listed in the following Table 1.
(§2) As an test compound, 1-(3-(7-((6-(4-ethylpiperazine-1-carbonyl)pyridin-3-yl)amino)-1-methyl-2-oxo-1,4-dihydropyrimido[4,5-d]pyrimidin-3(2H)-yl)-4-methylphenyl)-3-(2-methoxyphenyl)urea (Compound No. 14) was used. The kinase inhibitory efficacy was measured upon treatment with a 1 μM single concentration of the test compound to calculate % residual enzyme activity value.
(§3) ABL1, FGFR2, TAOK2/TAO1, EPHA5, EPHB2, EPHB3, RET, LYN B, EPHA2, FRK/PTK5, EPHA8, LCK, EPHB4, FYN, KHS/MAP4K5, DDR1, EPHA3, P38a/MAPK14, EPHA4, FMS, EPHB1, HCK, FGFR1, ABL2/ARG, EPHA6, c-Src, ACK1, FLT4NEGFR3, ERBB4/HER4, DDR2, KDRNEGFR2, LYN, ZAK/MLTK, YES/YES1, BLK, FGR, MLCK2/MYLK2, TAOK1, BMX/ETK, BTK, EPHA1, JAK1, P38b/MAPK11, TIE2/TEK, FLT1NEGFR1, TXK, SRMS, RAF1, SIK1, MLK3/MAP3K11, PEAK1, TRKA, EPHA7, GLK/MAP4K3, MLK2/MAP3K10, TEC, CSK, TRKC, FES/FPS, SIK2, FGFR3, BRK, YSK4/MAP3K19, ARAF, PDGFRb, TNK1, GCK/MAP4K2, PDGFRa, TNIK, TAK1, ERBB2/HER2, LIMK1, HIPK4, FER, EGFR, JAK2, HPK1/MAP4K1, TRKB, RIPK3, LOK/STK10, LIMK2, MLK1/MAP3K9, BRAF, MEKK3, MEK5, STK32B/YANK2, FGFR4, MEKK2, SLK/STK2, FLT3, PKAcg, TAOK3/JIK, TYRO3/SKY, SIK3, IR, LRRK2, PYK2, NEK11, p70S6K/RPS6KB1, LATS2.

BLK = BLK (Homo sapiens, UniProt P51451)
Protocol: as §1, §2, §3

IR = IR (Homo sapiens, UniProt P06213)
Protocol: as §1, §2, §3

PDGFRb = PDGFRb (Homo sapiens, UniProt P09619)
Protocol: as §1, §2, §3

TNK1 = TNK1 (Homo sapiens, UniProt Q13470)
Protocol: as §1, §2, §3

JAK2 = JAK2 (Homo sapiens, UniProt O60674)
Protocol: as §1, §2, §3

LYN = LYN (Homo sapiens, UniProt P07948)
Protocol: as §1, §2, §3

NEK11 = NEK11 (Homo sapiens, UniProt Q8NG66)
Protocol: as §1, §2, §3

KHS/MAP4K5 = KHS/MAP4K5 (Homo sapiens, UniProt Q9Y4K4)
Protocol: as §1, §2, §3

TEC = TEC (Homo sapiens, UniProt P42680)
Protocol: as §1, §2, §3

KDRNEGFR2 = KDRNEGFR2 (Homo sapiens, UniProt P35968)
Chain of KDRNEGFR2 (P35968 20-1356): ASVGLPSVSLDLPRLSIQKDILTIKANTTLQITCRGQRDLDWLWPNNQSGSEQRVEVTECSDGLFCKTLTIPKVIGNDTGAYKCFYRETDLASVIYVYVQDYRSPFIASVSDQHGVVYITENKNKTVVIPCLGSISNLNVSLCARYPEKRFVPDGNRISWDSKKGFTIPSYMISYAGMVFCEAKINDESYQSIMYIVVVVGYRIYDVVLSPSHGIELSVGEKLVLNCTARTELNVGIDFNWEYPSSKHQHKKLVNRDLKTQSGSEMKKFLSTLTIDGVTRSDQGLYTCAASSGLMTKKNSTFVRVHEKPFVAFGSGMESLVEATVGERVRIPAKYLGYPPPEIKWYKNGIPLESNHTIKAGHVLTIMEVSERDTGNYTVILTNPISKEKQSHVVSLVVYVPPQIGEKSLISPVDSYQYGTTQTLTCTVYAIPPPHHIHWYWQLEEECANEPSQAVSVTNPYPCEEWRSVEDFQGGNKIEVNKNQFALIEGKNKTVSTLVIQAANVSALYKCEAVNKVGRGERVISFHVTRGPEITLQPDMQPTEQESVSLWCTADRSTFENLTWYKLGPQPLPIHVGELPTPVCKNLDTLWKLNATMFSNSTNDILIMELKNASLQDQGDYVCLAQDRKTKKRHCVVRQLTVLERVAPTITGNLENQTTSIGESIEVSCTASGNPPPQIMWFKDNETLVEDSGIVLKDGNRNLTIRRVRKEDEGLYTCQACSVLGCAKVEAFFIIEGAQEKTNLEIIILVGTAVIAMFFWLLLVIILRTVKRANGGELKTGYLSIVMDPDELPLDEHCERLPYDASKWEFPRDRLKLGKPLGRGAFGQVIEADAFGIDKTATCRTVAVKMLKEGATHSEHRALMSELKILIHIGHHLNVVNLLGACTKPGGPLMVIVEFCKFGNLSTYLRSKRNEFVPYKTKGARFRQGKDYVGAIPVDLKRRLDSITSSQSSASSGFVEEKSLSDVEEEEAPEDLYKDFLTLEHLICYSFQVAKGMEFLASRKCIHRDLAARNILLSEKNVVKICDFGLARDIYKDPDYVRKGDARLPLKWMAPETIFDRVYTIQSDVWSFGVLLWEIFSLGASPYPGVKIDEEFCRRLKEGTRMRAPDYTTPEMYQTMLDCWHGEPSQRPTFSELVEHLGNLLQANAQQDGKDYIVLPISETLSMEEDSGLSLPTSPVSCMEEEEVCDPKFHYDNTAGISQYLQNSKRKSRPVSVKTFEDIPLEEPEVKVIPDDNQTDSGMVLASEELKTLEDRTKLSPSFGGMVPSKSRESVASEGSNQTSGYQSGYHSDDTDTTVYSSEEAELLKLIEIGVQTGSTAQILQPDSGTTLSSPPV
Protocol: as §1, §2, §3

EPHA1 = EPHA1 (Homo sapiens, UniProt P21709)
Protocol: as §1, §2, §3

MLK3/MAP3K11 = MLK3/MAP3K11 (Homo sapiens, UniProt Q16584)
Protocol: as §1, §2, §3

TYRO3/SKY = TYRO3/SKY (Homo sapiens, UniProt Q06418)
Chain of TYRO3/SKY (Q06418 41-890): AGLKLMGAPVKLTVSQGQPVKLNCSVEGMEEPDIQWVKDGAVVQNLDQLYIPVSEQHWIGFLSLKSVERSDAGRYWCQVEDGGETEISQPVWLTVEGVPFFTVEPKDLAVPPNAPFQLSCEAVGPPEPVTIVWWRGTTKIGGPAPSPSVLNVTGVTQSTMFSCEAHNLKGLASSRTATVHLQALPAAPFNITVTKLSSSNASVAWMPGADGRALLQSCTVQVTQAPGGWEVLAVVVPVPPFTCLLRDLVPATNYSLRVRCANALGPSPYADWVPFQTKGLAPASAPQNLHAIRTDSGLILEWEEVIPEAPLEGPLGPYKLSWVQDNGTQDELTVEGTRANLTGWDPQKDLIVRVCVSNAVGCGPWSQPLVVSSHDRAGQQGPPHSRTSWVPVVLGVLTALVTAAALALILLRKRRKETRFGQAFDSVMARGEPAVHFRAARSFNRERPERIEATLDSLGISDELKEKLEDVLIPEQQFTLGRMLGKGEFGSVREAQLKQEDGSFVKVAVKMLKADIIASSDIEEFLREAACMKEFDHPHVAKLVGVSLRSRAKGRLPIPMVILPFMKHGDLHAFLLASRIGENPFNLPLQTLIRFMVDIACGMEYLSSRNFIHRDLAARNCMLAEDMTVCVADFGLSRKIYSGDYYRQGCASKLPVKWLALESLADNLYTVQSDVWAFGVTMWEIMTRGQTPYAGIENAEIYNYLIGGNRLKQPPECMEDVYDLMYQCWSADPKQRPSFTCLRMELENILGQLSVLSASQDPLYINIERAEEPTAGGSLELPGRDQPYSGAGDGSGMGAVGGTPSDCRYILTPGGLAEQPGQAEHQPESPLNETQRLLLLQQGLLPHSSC
Protocol: as §1, §2, §3

RAF1 = RAF1 (Homo sapiens, UniProt P04049)
Chain of RAF1 (P04049 whole entry): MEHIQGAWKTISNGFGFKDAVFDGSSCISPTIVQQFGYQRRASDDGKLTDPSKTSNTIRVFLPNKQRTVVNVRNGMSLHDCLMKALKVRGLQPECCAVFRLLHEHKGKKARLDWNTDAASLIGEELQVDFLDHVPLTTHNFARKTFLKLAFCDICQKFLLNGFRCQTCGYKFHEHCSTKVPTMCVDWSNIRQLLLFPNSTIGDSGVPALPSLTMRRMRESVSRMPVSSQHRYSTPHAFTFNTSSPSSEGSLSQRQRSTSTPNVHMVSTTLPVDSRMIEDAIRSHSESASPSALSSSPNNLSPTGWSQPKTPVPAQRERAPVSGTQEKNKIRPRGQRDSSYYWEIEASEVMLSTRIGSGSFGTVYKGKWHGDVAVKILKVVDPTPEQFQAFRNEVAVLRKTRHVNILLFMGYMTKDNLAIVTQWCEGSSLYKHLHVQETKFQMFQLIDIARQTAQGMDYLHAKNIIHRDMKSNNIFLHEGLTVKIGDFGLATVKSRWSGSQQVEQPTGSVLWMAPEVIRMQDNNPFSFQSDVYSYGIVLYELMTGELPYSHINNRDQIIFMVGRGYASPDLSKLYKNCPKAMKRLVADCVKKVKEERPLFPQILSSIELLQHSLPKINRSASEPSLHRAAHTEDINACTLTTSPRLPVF
Protocol: as §1, §2, §3

HCK = HCK (Homo sapiens, UniProt P08631)
Protocol: as §1, §2, §3

FGFR4 = FGFR4 (Homo sapiens, UniProt P22455)
Protocol: as §1, §2, §3

MEKK3 = MEKK3 (Homo sapiens, UniProt Q99759)
Protocol: as §1, §2, §3

YSK4/MAP3K19 = YSK4/MAP3K19 (Homo sapiens, UniProt Q56UN5)
Protocol: as §1, §2, §3

c-Src = c-Src (Homo sapiens, UniProt P12931)
Protocol: as §1, §2, §3

SLK/STK2 = SLK/STK2 (Homo sapiens, UniProt Q9H2G2)
Chain of SLK/STK2 (Q9H2G2 whole entry): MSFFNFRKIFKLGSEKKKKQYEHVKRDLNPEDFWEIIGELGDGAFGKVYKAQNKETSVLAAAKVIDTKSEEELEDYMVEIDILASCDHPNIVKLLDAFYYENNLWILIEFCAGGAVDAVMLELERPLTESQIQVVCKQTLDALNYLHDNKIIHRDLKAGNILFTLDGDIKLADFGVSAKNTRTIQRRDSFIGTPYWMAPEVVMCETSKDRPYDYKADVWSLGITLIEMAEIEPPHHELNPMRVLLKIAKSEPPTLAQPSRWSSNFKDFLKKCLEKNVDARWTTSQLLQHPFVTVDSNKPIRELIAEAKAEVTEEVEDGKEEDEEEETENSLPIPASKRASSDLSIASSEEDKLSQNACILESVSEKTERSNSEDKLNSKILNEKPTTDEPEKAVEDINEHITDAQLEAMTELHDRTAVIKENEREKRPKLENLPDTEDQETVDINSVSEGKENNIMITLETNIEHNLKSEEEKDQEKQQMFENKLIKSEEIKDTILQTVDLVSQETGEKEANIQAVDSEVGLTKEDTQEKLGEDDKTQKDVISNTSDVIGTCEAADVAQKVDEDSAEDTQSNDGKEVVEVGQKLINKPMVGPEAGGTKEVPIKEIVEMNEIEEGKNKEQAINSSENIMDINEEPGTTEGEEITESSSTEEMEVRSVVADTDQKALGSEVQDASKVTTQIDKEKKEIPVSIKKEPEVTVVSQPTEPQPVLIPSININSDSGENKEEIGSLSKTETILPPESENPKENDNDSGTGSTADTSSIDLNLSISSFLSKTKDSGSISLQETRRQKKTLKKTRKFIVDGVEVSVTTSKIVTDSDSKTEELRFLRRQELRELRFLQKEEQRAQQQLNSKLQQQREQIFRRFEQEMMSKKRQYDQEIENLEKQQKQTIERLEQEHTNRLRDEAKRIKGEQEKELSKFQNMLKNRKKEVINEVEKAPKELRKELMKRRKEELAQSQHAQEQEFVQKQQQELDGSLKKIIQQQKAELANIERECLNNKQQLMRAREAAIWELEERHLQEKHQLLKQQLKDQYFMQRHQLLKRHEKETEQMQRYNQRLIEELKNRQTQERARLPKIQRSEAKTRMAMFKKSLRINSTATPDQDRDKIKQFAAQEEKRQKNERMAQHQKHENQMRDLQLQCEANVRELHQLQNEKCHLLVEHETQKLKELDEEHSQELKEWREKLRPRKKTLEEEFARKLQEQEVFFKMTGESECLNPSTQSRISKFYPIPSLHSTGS
Protocol: as §1, §2, §3

EPHB4 = EPHB4 (Homo sapiens, UniProt P54760)
Protocol: as §1, §2, §3

ARAF = ARAF (Homo sapiens, UniProt P10398)
Protocol: as §1, §2, §3

FER = FER (Homo sapiens, UniProt P16591)
Protocol: as §1, §2, §3

LRRK2 = LRRK2 (Homo sapiens, UniProt Q5S007)
Protocol: as §1, §2, §3

BMX/ETK = BMX/ETK (Homo sapiens, UniProt P51813)
Protocol: as §1, §2, §3

EPHB3 = EPHB3 (Homo sapiens, UniProt P54753)
Protocol: as §1, §2, §3

ZAK/MLTK = ZAK/MLTK (Homo sapiens, UniProt Q9NYL2)
Protocol: as §1, §2, §3

JAK1 = JAK1 (Homo sapiens, UniProt P23458)
Protocol: as §1, §2, §3

TRKA = TRKA (Homo sapiens, UniProt P04629)
Chain of TRKA (P04629 33-796): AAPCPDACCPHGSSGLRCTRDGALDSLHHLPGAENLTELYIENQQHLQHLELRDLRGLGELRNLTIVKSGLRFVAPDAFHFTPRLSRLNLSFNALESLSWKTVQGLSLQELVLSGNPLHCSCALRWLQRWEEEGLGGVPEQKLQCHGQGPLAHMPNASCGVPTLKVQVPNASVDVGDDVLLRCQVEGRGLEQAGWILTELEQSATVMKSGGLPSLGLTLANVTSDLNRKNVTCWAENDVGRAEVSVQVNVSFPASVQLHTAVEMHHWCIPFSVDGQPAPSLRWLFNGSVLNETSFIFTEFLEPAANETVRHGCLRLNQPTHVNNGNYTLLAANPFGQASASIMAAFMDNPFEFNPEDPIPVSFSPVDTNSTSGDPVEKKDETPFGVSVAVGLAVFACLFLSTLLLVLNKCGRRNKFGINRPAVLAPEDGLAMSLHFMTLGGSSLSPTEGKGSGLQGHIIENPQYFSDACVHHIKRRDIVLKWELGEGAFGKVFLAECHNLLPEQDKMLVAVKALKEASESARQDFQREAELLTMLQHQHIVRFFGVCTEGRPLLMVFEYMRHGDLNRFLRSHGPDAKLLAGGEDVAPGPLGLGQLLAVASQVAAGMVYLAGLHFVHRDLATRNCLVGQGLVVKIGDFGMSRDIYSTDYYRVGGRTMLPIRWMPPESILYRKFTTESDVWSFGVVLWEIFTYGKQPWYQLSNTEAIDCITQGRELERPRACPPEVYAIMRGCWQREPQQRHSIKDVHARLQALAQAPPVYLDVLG
Protocol: as §1, §2, §3

HIPK4 = HIPK4 (Homo sapiens, UniProt Q8NE63)
Protocol: as §1, §2, §3

Measured: remaining activity at 1 µM

CCN1CCN(C(=O)c2ccc(Nc3ncc4c(n3)N(C)C(=O)N(c3cc(NC(=O)Nc5ccccc5OC)ccc3C)C4)cn2)CC1 [Compound No. 14, 1-(3-(7-((6-(4-ethylpiperazin-1-carbonyl)pyridin-3-yl)amino)-1-methyl-2-oxo-1,4-dihydropyrimido[4,5-d]pyrimidin-3(2H)-yl)-4-methylphenyl)-3-(2-methoxyphenyl)urea]
≤ 30%: all assays above
